Blank lines part the entries; values can stand above or below the compound they belong to.
Experiments:
[1] = Blood levels of bioproducts in NASH rat model (CDHFD vs normal diet); conditions: for time after administration at which blood concentration increases / blood levels, CDHFD compared to ND rats: after oral 2-butanol 440 mg/Kg; for blood levels, CDHFD compared to ND rats: at 8 and 12 hours (480, 720 minutes)
Procedure: Blood samples were analysed using gas chromatography mass spectrometry (GC/-MS) or HPLC to measure metabolitic bioproducts benzoic acid, 3-hydroxy-2-butanone, 2-3-butanediol, and 2,3-pentanediol.
A total of 18 Wistar Han rats were acclimatized for 6 days. After that time, 9 rats remained on a normal diet, while 9 rats were switched to a choline deficient high fat diet (CDHFD) (L-Amino Acid Diet With 45 kcal % Fat With 0.1% Methionine, No Added Choline and 1% Cholesterol) (Research Diet, catalog #A16092003, https://researchdiets.com/en/formulas/a16092003). Rats had ad libitum access to food and water at all times unless differently specified. Body weight was measured every week.
Following 10 weeks of diet treatment, rats were randomised into groups each group composed of 3 healthy and 3 NASH rats for dosing with the different compounds.
Each group received an emulsion containing the compounds reported in table 1 at the indicated amount.
Each compound preparation was administered as an emulsion containing 15% Tween80 diluted in water to deliver the target amount in 5 mL/kg body weight. The emulsion was administered by oral gavage after the rats were fasted for 16 hours.
Blood samples were collected pre (0 min) and post compound administration at the following timepoints: 5 min, 15 min, 30 min, 1 h, 1.5 h, 2 h, 4 h, 8 h, 12 h, and 24 h.
At each time point, ˜200 μL blood samples were collected into EDTA-K2 tubes and placed on wet ice until centrifugation. Plasma was generated, from the blood samples, by centrifugation at approximately 4° C., 3,200 g for 5 min.
A total of 100 μL of plasma was collected respectively and transferred into Eppendorf tubes. Of these, 95 μL of plasma were spiked with 400 μL of internal standard in acetonitrile, vortexed for 30s and centrifuged for 15 min at 3220 g. A total of 100 μL of supernatant was used for compounds quantification, unless differently specified.
Response for each compound was normalized by the response of the internal standard, and absolute quantification was performed against a calibration curve.

[2] = test system: healthy human hepatocytes; experiment: Metabolism of VOCs by healthy human hepatocytes (organ-on-a-chip)
Procedure: Organ-on-a chip samples were used.
Organ-on-a chip is a three-dimensional hepatocytes culturing system developed by a company called CN-Bio Ltd. Aliquots of media spiked with VOCs and collected at different time points are analysed using CENTRI-GC-MS a system for VOCs headspace detection and quantification. The experiment contained samples from healthy hepatocytes in the culture medium exposed to 2-butanol, nonanal at one of the concentrations: 50, 10, 2 and 0 ng/μL, and the control which is the culture medium without hepatocytes containing 2-butanol, and nonanal of the same concentration.
System suitability test (SST) and […] standards check (0, 2, 10 and 50 ng/μL), were run in duplicate at the beginning, in the middle and at the end of the sequence to mitigate against the risk of an instrumental deviation.
Empty tubes were also run at the beginning, in the middle and at the end of the sequence to mitigate against the risk of a carryover 0.5 μL Internal standards (1000 ng/μL) were spiked into each sample prior to analysis.

[3] = test system: healthy and NASH hepatocytes; conditions: for level of probe in presence of NASH and healthy hepatocytes compared with absence of hepatocytes: 50 ng/μL in culture medium, aliquots 0.5 to 24 hours
Source text: Organ-on-a-chip containing healthy human hepatocytes and human hepatocytes treated to generate a model of a healthy or NASH liver disease were used in the following experiments. The Organ-on-a-chip containing healthy human hepatocytes are similar to the Organ-on-a-chip described above, but the experiment also included a model of NASH hepatocytes. The latter are obtained by treating healthy hepatocytes with Kupfer cells and hepatocytes stellate cells.
Primary human hepatocytes (PHHs), Kupffers cells (KCs), and hepatic stellate cells (HSCs) were seeded onto CN-Bio's PhysioMimix LC12 MPS culture plates at 6×10^5 cells for PHHs and 6×10^4 cells for HKCs and HSCs (necessary to induce the NASH phenotype) per well in CN-Bio's seeding medium. Throughout the experiment the cells were maintained at a medium flow rate of 1 μl/s. At days 4, 6, 8, 11, and 12 post seeding, medium aliquots were taken to measure LDH and albumin to assess cell health. At day 13 (24 hours post VOCs treatment), final medium collection for analysis was performed. Scaffolds were fixed in 4% formaldehyde for Oil Red O staining to assess lipid accumulation.
Primary hepatocytes were treated with 2-butanol and nonanal diluted in the hepatocytes culture medium at a concentration of 50 ng/μL. Aliquots of the culture medium were collected at 0.5, 1, 2, 4, 6, and 24 hours. The remaining medium-compound mix that was not added to the cells was considered as 0 timepoint reference. Headspace analysis was performed by using Centri, an automated system used to collect VOCs in the headspace, coupled with a GC-MS Orbi-trap system, a high-resolution mass spectrometer for detection and quantification of VOCs. Peak identification of 2-butanol, 2-butanone, nonanal, and 1-nonanol was performed by comparing the peak against a reference standard. A p-value<0.05 was considered as statistically significant.

AKR1B10 = AKR1B10 (Homo sapiens, UniProt O60218); experiment: Bioproduct production in A549 WT and AKR1B10 KO cells, headspace GC-MS; conditions: for substrate of AKR1B10 (converted to 1-nonanol / trans-2-hexenol by this enzyme): WT versus AKR1B10 KO A549 cells
Chain of AKR1B10 (O60218 whole entry): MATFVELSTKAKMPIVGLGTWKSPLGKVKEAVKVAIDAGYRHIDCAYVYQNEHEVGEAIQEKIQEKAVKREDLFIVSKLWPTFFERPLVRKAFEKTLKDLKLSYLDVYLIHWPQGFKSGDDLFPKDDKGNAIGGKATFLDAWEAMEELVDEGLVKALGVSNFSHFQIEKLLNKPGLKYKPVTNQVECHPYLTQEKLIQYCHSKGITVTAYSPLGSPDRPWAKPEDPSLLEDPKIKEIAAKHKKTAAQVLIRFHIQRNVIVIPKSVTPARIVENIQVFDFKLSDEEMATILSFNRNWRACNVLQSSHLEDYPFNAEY
Source text: We have tested conversion of these substrates to the respective bioproduct 1-nonanol, trans-2-hexenol, hexenol, benzyl alcohol, and nerol, in a cancer cell line overexpressing AKR1B10.
A549 lung cancer cells were targeted with a CRISP/Cas system to ablate the protein expression of AKR1B10. Specific sgRNA for the AKR1B10 gene were co-transfected in cells with SpCas9 using ribonucleoproteins (RNPs). Clonal cells were generated by using limiting dilution. […] Resulting protein extract for WT and AKR1B10 KO cells were analysed using the Jess system and samples were probed with an AKR1B10 specific antibody, and with an antibody against α-Tubulin as independent reporter.
5×10^4 cells/mL of WT or 3 AKR1B10 KO clone cells were seeded in 24-well plates using cell culture media and let adhere and proliferate for 48 hours to confluence. Then, they were treated with 30 μM nonanal or 10 µM trans-2-hexenal. […] Headspace analysis was performed by using Centri, coupled with a GC-MS Orbi-trap system. Peak identification of nonanal, 1-nonanol, trans-2-hexenal, and trans-2-hexenol, was performed by comparing the peak against reference standards.

[4] = Nonanal and 2-butanol washout in breath of volunteers; conditions: three volunteers; swallowed emulsion with 500 mg of Nonanal and 100 mg of 2-butanol; GC-MS
Procedure: An analysis of nonanal and 2-butanol washout of breath samples collected from three volunteers investigated before and after the intake of 500 mg of Nonanal and 100 mg of 2-butanol was performed. Three breath collections have been performed per each volunteer.
Three Volunteers participated in this trial for 3 times. They swallowed an emulsion containing 500 mg of Nonanal and 100 mg of 2-butanol and their breath was collected at 8 different time points before and after the emulsion intake using the ReCIVA, a face mask containing tubes for breath collection, and storage of exhaled VOCs.
Appearance on breath and conversion of the probes to their bioproducts was measured using gas-chromatography mass-spectrometry (GC-MS).

[5] = hepatocytes treated with 2-butanol and nonanal at 50 ng/μL
[6] = after oral 2-pentanone 160 mg/Kg

- time after administration at which blood concentration increases [1]: 240 min
Compound: CC(=O)C(C)O (centres unmarked) [3-hydroxy-2-butanone]
- blood levels, CDHFD compared to ND rats [1]: higher levels in CDHFD compared to ND rats

Compound: CCC(C)=O [2-butanone]
- level of bioproduct over time in media with hepatocytes ([2]; hepatocytes exposed to nonanal and 2-butanol, 50, 10, 2 and 0 ng/μL): a spike and subsequent decrease
- area of the bioproduct peak, NASH versus healthy hepatocytes [3, 5]: the area under the peak for healthy is larger than for NASH
- production of bioproduct, NASH versus healthy hepatocytes [3, 5]: Healthy hepatocytes showed higher production of 2-butanone at 6 hours

Compound: CCCCCC=O [hexanal]
- conversion of the substrate to the respective bioproduct (AKR1B10; human, 6 h): conversion to the bioproducts in a timeframe of 6 hours

Compound: CC(O)C(C)O (centres unmarked) [2,3-butanediol]
- time after administration at which blood concentration increases [1]: 240 min
- blood levels, CDHFD compared to ND rats [1]: higher levels in CDHFD compared to ND rats

- bioproduct generation after ablation of AKR1B10 or treatment of the cells with AKRs inhibitors (AKR1B10): reduced or absent bioproduct generation
- substrate of AKR1B10 (converted to 1-nonanol / trans-2-hexenol by this enzyme) (AKR1B10): substrates for AKR1B10
- production of bioproduct of trans-2-hexenal, levels in WT compared to AKR1B10 KO cells (AKR1B10; human, 10 μM): 10 times higher
- level of trans-2-hexenal in medium added to WT or AKR1B10 KO cell lines, versus medium without cells (AKR1B10; human, 3 h, 10 μM): increased reduction over 3 hours
Compound: CCC/C=C/C=O [trans-2-hexenal]
- conversion of the substrate to the respective bioproduct (AKR1B10; human, 6 h): conversion to the bioproducts in a timeframe of 6 hours

Compound: CCC(C)O (centres unmarked) [2-butanol]
- level of probe over 24 hours in media alone and media with hepatocytes ([2]; 50, 10, 2 and 0 ng/μL, healthy hepatocytes, headspace GC-MS): a decrease both in media alone and media with hepatocytes
- level of probe in presence of NASH and healthy hepatocytes compared with absence of hepatocytes [3]: more marked reduction at 24 h
- detection in breath samples after emulsion intake [4]: detected

- time after administration after which blood levels increased [1, 6]: 1 h
Compound: CCC(O)C(C)O (centres unmarked) [2,3-pentanediol]
- blood levels, CDHFD rats compared to ND rats [1, 6]: higher in CDHFD rats compared to ND rats after 4 hours

- production of 1-nonanol, levels in WT compared to AKR1B10 KO cells (AKR1B10; human, 30 μM): 3 times higher
Compound: CCCCCCCCCO [1-nonanol]

Compound: O=Cc1ccccc1 [benzylaldehyde]
- conversion of the substrate to the respective bioproduct (AKR1B10; cancer cell line overexpressing AKR1B10, substrates added to the culture media): conversion to the bioproducts in a timeframe of 6 hours

Compound: CCCCCCCCC=O [nonanal]
- level of probe in presence of NASH and healthy hepatocytes compared with absence of hepatocytes [3]: more marked reduction
- bioproduct generation after ablation of AKR1B10 or treatment of the cells with AKRs inhibitors (AKR1B10): reduced or absent bioproduct generation
- substrate of AKR1B10 (converted to 1-nonanol / trans-2-hexenol by this enzyme) (AKR1B10): substrates for AKR1B10
- level of nonanal in medium added to WT or AKR1B10 KO cell lines, versus medium without cells (AKR1B10; human, 3 h, 30 μM): increased reduction over 3 hours
- conversion of the substrate to the respective bioproduct (AKR1B10; human, 6 h): conversion to the bioproducts in a timeframe of 6 hours

Compound: CC(C)=CCCC(C)=CC=O [citral]
- conversion of the substrate to the respective bioproduct (AKR1B10; human, 6 h): conversion to the bioproducts in a timeframe of 6 hours
